Values of other authors in patent US11353469B2, “Nontoxic compounds for use as taggants in nutritional and pharmaceutical products” (Hall Labs, LLC, priority 2019, dated 2022).
Like-named read-outs stand apart in the source and are kept apart here.

Conditions: for amount recoverable in urine: single dose of 1 g/kg body weight

time after administration at which DMSO has been detected in urine (applied topically): 2 h
time after administration at which compound could be detected in urine (orally administered): 30 min
time of peak excretion in urine (orally administered): ≤ 4 h
amount recoverable in urine (administered orally): 30-68%
amount recoverable in urine (applied topically): 13%
SMILES: C[S+](C)[O-] [DMSO, dimethylsulfoxide]
